What was measured:
Parameters in all cases: species or system female BALB/c mice
[1] = test system: subcutaneous murine colorectal cancer model CT26.WT; test: In vivo efficacy study, subcutaneous murine colorectal cancer model CT26.WT (Example 4); settings: Day 16
Method: (§1) The objective of this study was to evaluate preclinically the in vivo therapeutic efficacy of HotSpot Therapeutics's Test Articles in the treatment of the subcutaneous murine Colorectal model CT26.WT in female BALB/c mice. Compound 29 test particles were delivered via PO. Compound 29 was assessed at various dose levels in combination with Oxaliplatin or Cabozantinib. Tumor volumes and body weight were measured three times per week after the initiation of treatment.
The CT26.WT tumor cells were maintained in vitro with RPMI-1640 medium supplemented with 10% fetal bovine serum at 37° C. in an atmosphere of 5% CO2 in air. The cells in exponential growth phase were harvested and quantitated by cell counter before tumor inoculation.
Each mouse was inoculated subcutaneously it the right lower flank region with 5×10^5 tumor cells in 0.1 ml of PBS mixed with Matrigel (1:1) for tumor development.
The randomization started when the mean tumor size reached approximately 86.42 mm^3. 60 mice were enrolled in the study. All animals were randomly allocated to 6 study groups, 10 mice in each group. Randomization was performed based on “Matched distribution” method (StudyDirector™ software, version 3.1.399.19)
The date of randomization was denoted as day 0.
The treatment was initiated on the same day of randomization (day 0) per study design.
(§2) After tumor cells inoculation, the animals were checked daily for morbidity and mortality. During routine monitoring, the animals were checked for any effects of tumor growth and treatments on behavior such as mobility, food and water consumption, body weight gain/loss (Body weights were measured twice per week after randomization), eye/hair matting and any other abnormalities. Mortality and observed clinical signs were recorded for individual animals in detail.
Tumor volumes were measured twice per week after randomization in two dimensions using a caliper, and the volume was expressed in mm^3 using the formula: “V=(L×W×W)/2, where V was tumor volume, L was tumor length (the longest tumor dimension) and W was tumor width (the longest tumor dimension perpendicular to L). Dosing as well as tumor and body weight measurements were conducted in a Laminar Flow Cabinet.
The body weights and tumor volumes were measured by using StudyDirector™ software (version 3.1.399.19).
For Group 01 and Group 03 were terminated when the mean tumor volume of the vehicle control group reaches 2000 mm^3 on day 16.
For Group 02, Group 04, Group 05 and Group 06 were performed for 3 weeks. The study was terminated on day 21 (Sep. 21, 2022).
To compare tumor volumes of different groups at a pre-specified day, we first used Bartlett's test to check the assumption of homogeneity of variance across all groups. When the p-value of Bartlett's test was >=0.05, we ran one-way ANOVA to test overall equality of means across all groups. If the p-value of the one-way ANOVA was <0.05, we further performed post hoc testing by running Tukey's HSD (honest significant difference) tests for all pairwise comparisons, and Dunnett's tests for comparing each treatment group with the vehicle group. When the p-value of Bartlett's test was <0.05, we ran Kruskal-Wallis test to test overall equality of medians among all groups. If the p-value the Kruskal-Wallis test was <0.05, we further performed post hoc testing by running Conover's non-parametric test for all pairwise comparisons or for comparing each treatment group with the vehicle group, both with single-step p-value adjustment.
In addition, we performed pairwise comparisons without multiple comparison correction and report nominal/uncorrected p-values directly from Welch's t-test or Mann-Whitney U test at each time point. Specifically, we first used Shapiro Wilk test to check the assumption of normal distribution for each group. When p-values of Shapiro Wilk tests of both groups in a pair are >0.05, we ran Welch's t-test, otherwise we ran Mann-Whitney U test, to obtain nominal p-values. […]

[2] = test system: subcutaneous murine colorectal cancer model CT26.WT; test: In vivo efficacy study, CT26.WT model, combination with ALT-803 (Example 6); settings: Compound 29 30 mg/kg p.o. BID in combination with ALT-803 0.2 mg/kg i.p. QW; FIG. 5A, 5B
Method: as §1, with “of” for “of HotSpot Therapeutics's”, “ALT-803.” for “Oxaliplatin or Cabozantinib.”
The CT26.WT tumor cells will be maintained in vitro with RPMI-1640 medium supplemented with 10% fetal bovine serum at 37° C. in an atmosphere of 5% CO2 in air. The cells in exponential growth phase will be harvested and quantitated by cell counter before tumor inoculation. […]
as §2, with “will be” for “were”, “detail. […]” for “detail.”
(§3) The body weights and tumor volumes will be measured by using StudyDirector™ software (version 3.1.399.19). […]

[3] = test system: subcutaneous murine colorectal cancer model CT26.WT; test: In vivo efficacy study, CT26.WT model, combination with Doxorubicin, Gemcitabine or Paclitaxel (Example 5)
Method: as §1, with “of” for “of HotSpot Therapeutics's”, “Doxorubicin, Gemcitabine” for “Oxaliplatin”, “Paclitaxel.” for “Cabozantinib.”
The CT26.WT tumor cells will be maintained in vitro with RPMI-1640 medium supplemented with 10% fetal bovine serum at 37° C. in an atmosphere of 5% CO2 in air. The cells in exponential growth phase will be harvested and quantitated by cell counter before tumor inoculation.
Each ach mouse will be inoculated subcutaneously in the right lower flank region with CT26 tumor cells (5×10^5) in 0.1 ml of PBS for tumor development.
The randomization will start when the mean tumor size reaches approximately 80-100 mm^3. […] Randomization will be performed based on “Matched distribution” method/“Stratified” method (Study Director™ software, version 3.1.399.19)/randomized block design. The date of randomization will be denoted as day 0. […]
as §2, with “will be” for “were”
Tumor volumes will be measured twice per week after randomization in two dimensions using a caliper, and the volume will be expressed in mm^3 using the formula: “V=(L×W×W)/2, where V is tumor volume, L is tumor length (the longest tumor dimension) and W is tumor width (the longest tumor dimension perpendicular to L). […]
as §3

[4] = single agent, Compound 29 60 mg/kg p.o. BID, Oxaliplatin 5 mg/kg i.p. Q4D, Cabozantinib 10 mg/kg p.o. QD
[5] = Compound 29 60 mg/kg p.o. BID in combination with Cabozantinib 10 mg/kg p.o. QD (Group 6)
[6] = Compound 29 60 mg/kg p.o. BID in combination with Oxaliplatin 5 mg/kg i.p. Q4D (Group 5)

## COc1cc2nccc(Oc3ccc(NC(=O)C4(C(=O)Nc5ccc(F)cc5)CC4)cc3)c2cc1OC [Cabozantinib, reference compound]
[1]; [4]
  T/C (%): 30.55%
  TGI (%): 69.45%
  Tumor Volume (mean ± SEM): 772.01 ± 100.44 mm^3

## C[C@H]1CCCN(Cc2cc(C(F)(F)F)c3cn(-c4cccc(C5(Cc6nncn6C)COC5)c4)c(=O)n3c2)C1 [Compound 29]
[1]; [5]
  T/C (%): 25.45%
  TGI (%): 74.55%
  Tumor Volume (mean ± SEM): 643.08 ± 59.79 mm^3
[1]; [6]
  T/C (%): 35.94%
  TGI (%): 64.06%
  Tumor Volume (mean ± SEM): 908.21 ± 76.22 mm^3
[1]; [4]
  T/C (%): 56.42%
  TGI (%): 43.58%
  Tumor Volume (mean ± SEM): 1425.65 ± 232.85 mm^3
[2]
  effect on tumor inhibition as compared to each of the agents as monotherapies: improved effect on tumor inhibition
[3]; Compound 29 60 mg/kg p.o. BID in combination with Doxorubicin 4 mg/kg i.v. Q4D, FIG. 2A, 2B
  effect on tumor inhibition as compared to each of the agents as monotherapies: improved effect on tumor inhibition
[3]; Compound 29 60 mg/kg p.o. BID in combination with Gemcitabine 5 mg/kg i.p. Q3D, FIG. 3A, 3B
  effect on tumor inhibition as compared to each of the agents as monotherapies: improved effect on tumor inhibition
[3]; Compound 29 60 mg/kg p.o. BID in combination with Paclitaxel 20 mg/kg i.p. QW, FIG. 4A, 4B
  effect on tumor inhibition as compared to each of the agents as monotherapies: improved effect on tumor inhibition

## O=C1[O][Pt]2([NH][C@@H]3CCCC[C@H]3[NH]2)[O]C1=O [Oxaliplatin, reference compound]
[1]; [4]
  T/C (%): 103.27%
  TGI (%): −3.27%
  Tumor Volume (mean ± SEM): 2609.42 ± 203.84 mm^3
